Source: patent US11578073B2, “Xanthine analogs as potent anti-West Nile viral agents” (Southern Research Institute, priority 2019, dated 2023)

Tests used:
West Nile virus = experiment: anti-West Nile virus activity of xanthine analogs in HEK293 cells; type: cell-based; settings: HEK293, read-out: EC90 (effective concentration to inhibit 90% of virus)
[1] = cell viability assay (cytotoxicity) in HEK293 cells; type: cell-based; settings: human, read-out: CC50 (50% cytotoxicity concentration)

| Structure (SMILES) | EC90 (West Nile virus) | CC50 [1] |
| --- | --- | --- |
| Cc1ccc(C)c(CN2CCN(c3nc4c(c(=O)[nH]c(=O)n4C)n3Cc3ccccc3F)CC2)c1 [Compound 1, 8-(4-(2,5-dimethylbenzyl)piperazin-1-yl)-7-(2-fluorobenzyl)-3-methyl-3,7-dihydro-1H-purine-2,6-dione] | 1.2 µM | 12 µM |
| Cc1ccc(C)c(CN2CCN(c3nc4c(c(=O)n(C)c(=O)n4C)n3Cc3ccccc3F)CC2)c1 [Compound 2, 8-(4-(2,5-dimethylbenzyl)piperazin-1-yl)-7-(2-fluorobenzyl)-1,3-dimethyl-3,7-dihydro-1H-purine-2,6-dione] | 1.1 µM | > 40 µM |
| Cc1ccc(C)c(CN2CCN(c3nc4c([nH]3)c(=O)n(Cc3ccccc3F)c(=O)n4C)CC2)c1 [Compound 3, 8-(4-(2,5-dimethylbenzyl)piperazin-1-yl)-1-(2-fluorobenzyl)-3-methyl-3,7-dihydro-1H-purine-2,6-dione] | > 10 µM | > 40 µM |
| Cn1c(=O)n(O)c(=O)c2c1nc(N1CCN(Cc3ccc(C(C)(C)C)cc3)CC1)n2Cc1ccccc1F [Compound 4, 8-(4-(4-(tert-butyl)benzyl)piperazin-1-yl)-7-(2-fluorobenzyl)-1-hydroxy-3-methyl-3,7-dihydro-1H-purine-2,6-dione] | > 30 µM | > 40 µM |
| Cn1c(=O)n(CO)c(=O)c2c1nc(N1CCN(Cc3ccc(C(C)(C)C)cc3)CC1)n2Cc1ccccc1F [Compound 5, 8-(4-(4-(tert-butyl)benzyl)piperazin-1-yl)-7-(2-fluorobenzyl)-1-(hydroxymethyl)-3-methyl-3,7-dihydro-1H-purine-2,6-dione] | 1.2 µM | 16.8 µM |
| Cn1c(=O)n(CCO)c(=O)c2c1nc(N1CCN(Cc3ccc(C(C)(C)C)cc3)CC1)n2Cc1ccccc1F [Compound 6, 8-(4-(4-(tert-butyl)benzyl)piperazin-1-yl)-7-(2-fluorobenzyl)-1-(2-hydroxyethyl)-3-methyl-3,7-dihydro-1H-purine-2,6-dione] | 6 µM | 12 µM |
| Cc1ccc(C)c(CN2CCN(c3nc4c([nH]3)c(=O)[nH]c(=O)n4C)CC2)c1 [Compound 7, 8-(4-(2,5-Dimethylbenzyl)piperazin-1-yl)-3-methyl-3,7-dihydro-1H-purine-2,6-dione] | > 10 µM |  |
| CCn1c(N2CCN(Cc3cc(C)ccc3C)CC2)nc2c1c(=O)[nH]c(=O)n2C [Compound 8, 8-(4-(2,5-Dimethylbenzyl)piperazin-1-yl)-7-ethyl-3-methyl-3,7-dihydro-1H-purine-2,6-dione] | > 10 µM | > 40 µM |
| Cc1ccc(C)c(CN2CCN(c3nc4c(c(=O)[nH]c(=O)n4C)n3CC3CCCCC3)CC2)c1 [Compound 9, 7-(Cyclohexylmethyl)-8-(4-(2,5-dimethylbenzyl)piperazin-1-yl)-3-methyl-3,7-dihydro-1H-purine-2,6-dione] | 4.4 µM | > 40 µM |
| Cc1ccc(C)c(CN2CCN(c3nc4c(c(=O)[nH]c(=O)n4C)n3Cc3cccnc3)CC2)c1 [Compound 10, 8-(4-(2,5-Dimethylbenzyl)piperazin-1-yl)-3-methyl-7-(pyridin-3-ylmethyl)-3,7-dihydro-1H-purine-2,6-dione] | > 10 µM |  |
| Cc1ccc(C)c(CN2CCN(c3nc4c(c(=O)[nH]c(=O)n4C)n3Cc3ccccc3C#N)CC2)c1 [Compound 11, 2-((8-(4-(2,5-Dimethylbenzyl)piperazin-1-yl)-3-methyl-2,6-dioxo-1,2,3,6-tetrahydro-7H-purin-7-yl)methyl)benzonitrile] | 6.9 µM | > 30 µM |
| Cn1c(=O)[nH]c(=O)c2c1nc(N1CCNCC1)n2Cc1ccccc1F [Compound 21, 7-(2-Fluorobenzyl)-3-methyl-8-(piperazin-1-yl)-3,7-dihydro-1H-purine-2,6-dione] | > 10 µM |  |
| Cn1c(=O)[nH]c(=O)c2c1nc(N1CCN(C3CC3)CC1)n2Cc1ccccc1F [Compound 23, 8-(4-Cyclopropylpiperazin-1-yl)-7-(2-fluorobenzyl)-3-methyl-3,7-dihydro-1H-purine-2,6-dione] | > 10 µM |  |
| Cn1c(=O)[nH]c(=O)c2c1nc(N1CCN(C(C)(C)C)CC1)n2Cc1ccccc1F [Compound 24, 8-(4-(tert-Butyl)piperazin-1-yl)-7-(2-fluorobenzyl)-3-methyl-3,7-dihydro-1H-purine-2,6-dione] | > 10 µM |  |
| Cn1c(=O)[nH]c(=O)c2c1nc(N1CCN(C3CCC3)CC1)n2Cc1ccccc1F [Compound 25, 8-(4-Cyclobutylpiperazin-1-yl)-7-(2-fluorobenzyl)-3-methyl-3,7-dihydro-1H-purine-2,6-dione] | > 10 µM |  |
| Cn1c(=O)[nH]c(=O)c2c1nc(N1CCN(c3ccc(C(C)(C)C)cc3)CC1)n2Cc1ccccc1F [Compound 29, 8-(4-(4-(tert-Butyl)phenyl)piperazin-1-yl)-7-(2-fluorobenzyl)-3-methyl-3,7-dihydro-1H-purine-2,6-dione] | > 10 µM |  |
| Cn1c(=O)[nH]c(=O)c2c1nc(N1CCN(c3ccc(Cl)cc3F)CC1)n2Cc1ccccc1F [Compound 31, 8-(4-(4-Chloro-2-fluorophenyl)piperazin-1-yl)-7-(2-fluorobenzyl)-3-methyl-3,7-dihydro-1H-purine-2,6-dione] | > 10 µM |  |

| Structure (SMILES) | EC90 (West Nile virus) | CC50 [1] |
| --- | --- | --- |
| Cn1c(=O)[nH]c(=O)c2c1nc(N1CCN(c3ccc(C#N)cn3)CC1)n2Cc1ccccc1F [Compound 32, 6-(4-(7-(2-Fluorobenzyl)-3-methyl-2,6-dioxo-2,3,6,7-tetrahydro-1H-purin-8-yl)piperazin-1-yl)nicotinonitrile] | > 10 µM |  |
| Cn1c(=O)[nH]c(=O)c2c1nc(N1CCN(c3ccccn3)CC1)n2Cc1ccccc1F [Compound 33, 7-(2-Fluorobenzyl)-3-methyl-8-(4-(pyridin-2-yl)piperazin-1-yl)-3,7-dihydro-1H-purine-2,6-dione] | > 10 µM |  |
| Cn1c(=O)[nH]c(=O)c2c1nc(N1CCN(C(=O)c3ccc(C(C)(C)C)nc3)CC1)n2Cc1ccccc1F [Compound 45, 8-(4-(6-(tert-Butyl)nicotinoyl)piperazin-1-yl)-7-(2-fluorobenzyl)-3-methyl-3,7-dihydro-1H-purine-2,6-dione] | > 10 µM |  |
| Cc1ccc(C)c(CCN2CCN(c3nc4c(c(=O)[nH]c(=O)n4C)n3Cc3ccccc3F)CC2)c1 [Compound 46, 8-(4-(2,5-Dimethylphenethyl)piperazin-1-yl)-7-(2-fluorobenzyl)-3-methyl-3,7-dihydro-1H-purine-2,6-dione] | 10.2 µM |  |
| Cn1c(=O)[nH]c(=O)c2c1nc(N1CCN(CCc3ccc(C(C)(C)C)cc3)CC1)n2Cc1ccccc1F [Compound 47, 8-(4-(4-(tert-Butyl)phenethyl)piperazin-1-yl)-7-(2-fluorobenzyl)-3-methyl-3,7-dihydro-1H-purine-2,6-dione] | 13.6 µM |  |
| Cc1ccc(C)c(CC(=O)N2CCN(c3nc4c(c(=O)[nH]c(=O)n4C)n3Cc3ccccc3F)CC2)c1 [Compound 48, 8-(4-(2-(2,5-Dimethylphenyl)acetyl)piperazin-1-yl)-7-(2-fluorobenzyl)-3-methyl-3,7-dihydro-1H-purine-2,6-dione] | > 10 µM |  |
| Cn1c(=O)[nH]c(=O)c2c1nc(N1CCN(CC(=O)c3ccc(C(C)(C)C)cc3)CC1)n2Cc1ccccc1F [Compound 49, 8-(4-(2-(4-(tert-butyl)phenyl)-2-oxoethyl)piperazin-1-yl)-7-(2-fluorobenzyl)-3-methyl-3,7-dihydro-1H-purine-2,6-dione] | > 10 µM |  |
| Cn1c(=O)[nH]c(=O)c2c1nc(N1CCC(F)(F)C1)n2Cc1ccccc1F [Compound 51, 8-(3,3-Difluoropyrrolidin-1-yl)-7-(2-fluorobenzyl)-3-methyl-3,7-dihydro-1H-purine-2,6-dione] | > 10 µM |  |
| Cn1c(=O)[nH]c(=O)c2c1nc(N1CCC(F)(F)CC1)n2Cc1ccccc1F [Compound 53, 8-(4,4-Difluoropiperidin-1-yl)-7-(2-fluorobenzyl)-3-methyl-3,7-dihydro-1H-purine-2,6-dione] | > 10 µM |  |
| Cn1c(=O)[nH]c(=O)c2c1nc(N1CCC(C(C)(C)C)CC1)n2Cc1ccccc1F [Compound 54, 8-(4-(tert-Butyl)piperidin-1-yl)-7-(2-fluorobenzyl)-3-methyl-3,7-dihydro-1H-purine-2,6-dione] | 1.5 µM |  |
| Cn1c(=O)[nH]c(=O)c2c1nc(N1CCC(C(F)(F)F)CC1)n2Cc1ccccc1F [Compound 55, 7-(2-Fluorobenzyl)-3-methyl-8-(4-(trifluoromethyl)piperidin-1-yl)-3,7-dihydro-1H-purine-2,6-dione] | > 10 µM |  |
| Cn1c(=O)[nH]c(=O)c2c1nc(N1CCC(c3ccc(C#N)cc3)CC1)n2Cc1ccccc1F [Compound 58, 4-(1-(7-(2-Fluorobenzyl)-3-methyl-2,6-dioxo-2,3,6,7-tetrahydro-1H-purin-8-yl)piperidin-4-yl)benzonitrile] | > 10 µM |  |
| Cn1c(=O)[nH]c(=O)c2c1nc(N1CCC(Cc3ccc(C#N)cc3)CC1)n2Cc1ccccc1F [Compound 59, 4-((1-(7-(2-Fluorobenzyl)-3-methyl-2,6-dioxo-2,3,6,7-tetrahydro-1H-purin-8-yl)piperidin-4-yl)methyl)benzonitrile] | > 10 µM |  |
| Cn1c(=O)[nH]c(=O)c2c1nc(N1CCC(Cc3ccc(F)cc3)CC1)n2Cc1ccccc1F [Compound 60, 7-(2-Fluorobenzyl)-8-(4-(4-fluorobenzyl)piperidin-1-yl)-3-methyl-3,7-dihydro-1H-purine-2,6-dione] | > 10 µM |  |
| Cn1c(=O)[nH]c(=O)c2c1nc(N1CCC(Cc3cc(F)cc(F)c3)CC1)n2Cc1ccccc1F [Compound 61, 8-(4-(3,5-Difluorobenzyl)piperidin-1-yl)-7-(2-fluorobenzyl)-3-methyl-3,7-dihydro-1H-purine-2,6-dione] | > 10 µM |  |
| Cn1c(=O)[nH]c(=O)c2c1nc(N1CCC(Cc3cccnc3)CC1)n2Cc1ccccc1F [Compound 62, 7-(2-Fluorobenzyl)-3-methyl-8-(4-(pyridin-3-ylmethyl)piperidin-1-yl)-3,7-dihydro-1H-purine-2,6-dione] | 12.4 µM |  |
| Cc1ccc(C)c(CNCCNc2nc3c(c(=O)[nH]c(=O)n3C)n2Cc2ccccc2F)c1 [Compound 63, 8-((2-((2,5-dimethylbenzyl)amino)ethyl)amino)-7-(2-fluorobenzyl)-3-methyl-3,7-dihydro-1H-purine-2,6-dione] | > 10 µM |  |
